From US7262218B2, “Forms of pravastatin sodium” (Teva Gyogyszergyar Zartkoruen Mukodo Reszvenytarsasag, priority 1999, dated 2007)
Blank lines part the entries; values can stand above or below the compound they belong to.

Tests used:
[1] = Solid-form stability on drying under vacuum (X-ray diffraction); type: physicochemical
Method: Most of these forms have a jelly appearance. By drying these samples at 60° C., vacuum overnight, the powdered Form D is obtained.
Pravastatin sodium (7 g) was dissolved in deionized water (13 ml) and diluted with acetone (14.3 ml). The resulting solution was stirred over charcoal (0.07 g.) to decolorize. The charcoal was removed by filtration and rinsed with a 10:1 mixture of acetone:water (15.7 ml). The combined pravastatin sodium solution and rinsate was then diluted with acetone (42.8 ml) and cooled to −10° C. At the reduced temperature, more acetone (143 ml) was slowly added over one half hour. The solution was then maintained at −10° C. for three hours during which time pravastatin sodium crystallized. The crystals were then isolated by filtration, washed with 1% water in acetone that had been pre-cooled to −10° C. (28 ml) and then again with anhydrous acetone (28 ml). The crystals were then dried under vacuum at 50° C. […]
Pravastatin crystals were filtered and washed with 160 L acetone containing 2% water and cooled to between 2-5° C. Then the wet cake was washed once more with 160 L of pure acetone. The product was dried under vacuum by gradual heating to 60° C. The crystals were identified by X-ray diffraction as Form L. The water content was 16.8% and the acetone content was 0%. After prolonged drying the water content was reduced to 10.7%. A mixture of Form L and D was identified.

[2] = Solid-form stability on storage at 40-80% relative humidity for two weeks (X-ray diffraction); type: physicochemical; conditions: two weeks at relative humidity of between 40-80%
Method: Pravastatin sodium Form G may be prepared by storing pravastatin sodium Form F for 2 weeks at a relative humidity of about 40 to about 80%. […] The resulting solid was analyzed by X-ray diffraction without further treatment.

[3] = Solid-form stability on exposure at 100% relative humidity (X-ray diffraction); type: physicochemical; conditions: one week
From the text: The water uptake at 80% relative humidity after 1 week was up to about 15%. After exposure at 100% relative humidity, all the forms of pravastatin sodium transform to Form C with about […].
Pravastatin sodium was exposed at 100% relative humidity for one week.

serum cholesterol levels = conditions: human subjects with normal hepatic function and moderate body weight; daily dosages of 10 mg or more; cited from earlier work

crystal form after drying under vacuum overnight [1]: transformed to Form D
SMILES: CC[C@H](C)C(=O)O[C@H]1C[C@H](O)C=C2C=C[C@H](C)[C@H](CC[C@@H](O)C[C@@H](O)CC(=O)O)[C@H]21 [Form J, pravastatin sodium]

crystal form after drying under vacuum at 50° C. ([1]; dried under vacuum at 50° C. (Example 6)): after drying the crystals were Form D
crystal form after further drying under vacuum ([1]; vacuum, gradual heating to 60° C., further drying to 2.5% water content (Example 23)): transformed to pure Form D
SMILES: CC[C@H](C)C(=O)O[C@H]1C[C@H](O)C=C2C=C[C@H](C)C(CC[C@@H](O)C[C@@H](O)CC(=O)O)[C@H]21 (some centres unmarked) [Form L, pravastatin sodium]

crystal form after drying under vacuum overnight [1]: transformed to Form D
SMILES: CC[C@H](C)C(=O)O[C@H]1C[C@H](O)C=C2C=C[C@H](C)[C@H](CC[C@@H](O)C[C@@H](O)CC(=O)O)[C@H]21 [Form I, pravastatin sodium]

More lines, now with the values behind:

SMILES: CC[C@H](C)C(=O)O[C@H]1C[C@H](O)C=C2C=C[C@H](C)[C@H](CC[C@@H](O)C[C@@H](O)CC(=O)O)[C@H]21 [Form H, pravastatin sodium]
crystal form after drying under vacuum overnight [1]: converted to Form D

SMILES: CC[C@H](C)C(=O)O[C@H]1C[C@H](O)C=C2C=C[C@H](C)[C@H](CC[C@@H](O)C[C@@H](O)CC(=O)O)[C@H]21 [Form F, pravastatin sodium]
crystal form after storage at humidity [2]: Form G is obtained

SMILES: CC[C@H](C)C(=O)O[C@H]1C[C@H](O)C=C2C=C[C@H](C)C(CC[C@@H](O)C[C@@H](O)CC(=O)O)[C@H]21 (relative stereo) [Pravastatin sodium, [1S-[1α(β*,δ*)2α,6α,8β(R*),8aα]]-1,2,6,7,8,8a-hexahydro-β,δ,6-trihydroxy-2-methyl-8-(2-methyl-1-oxobutoxy)-1-naphthalene-heptanoic acid]
crystal form after exposure at 100% relative humidity [3]: found to be Form C
effect on serum cholesterol levels (serum cholesterol levels): reduction in serum cholesterol levels
